Consider 123 compounds from a melting point compilation (Tetko et al.).

Molecules are shown by their SMILES.

By melting point is commonly meant the temperature, or range, at which the solid turns liquid.

For `CCOC(=O)c1c(-c2ccccc2)csc1N=CN(C)C`, the melting point was 95 to 97 °C.

Take `COc1ccc(Nc2nc(C(=O)O)cs2)cc1`: the melting point fell in the range of 239 to 241 °C. The same measure for `N#CCC1(Sc2ccccc2N)CCCC1`: 89 to 91 °C; for `COc1ccccc1-n1nnnc1S`: 153 to 155 °C; for `O=C(O)C1CCN(CC(F)(F)F)CC1`: 62 to 64 °C. In the case of `CC(NC1=NS(=O)(=O)c2ccccc21)C(=O)O` (stereo not drawn), the melting point was 220 to 222 °C. Next, `Nc1nc2ncccc2[nH]1`: 268 to 270 °C; `CC(=O)NCc1ccc(C(=O)O)s1`: 186 to 188 °C. In turn, `Nc1ccc2nc[nH]c(=O)c2c1` came in with a melting point of 309 to 311 °C.

`O=c1[nH]c2c(s1)CCCC2` had a melting point of 141 to 143 °C. Take `CCOC(=O)Nc1ccc(N)cc1C#N`: the melting point was 166 to 168 °C. `Cc1noc(C=Cc2ccc(F)cc2)c1N` yielded a melting point of 167 to 169 °C. The compound `O=C(O)Cc1ccc(O)cc1Cl` showed a melting point of 171 to 173 °C. Next, `COc1ccccc1C(C)NC(=O)C(C)Cl` (stereo not drawn): 109 to 111 °C.

Compound `Cc1cc(C)cc(OCCN(C)C(=O)CCl)c1` gave a melting point of 70 to 72 °C. The same measure for `NC1CCC2SCCSC12` (stereo not drawn): 49 to 51 °C; for `Cc1cccc(S(N)(=O)=O)c1Cl`: 169 to 171 °C. The same measure for `N#Cc1ccc2c(c1)CC(=O)N2`: 249 to 251 °C. Next, `COc1ccc(O)c(N)c1`: 135 to 140 °C; `NC(=O)c1cccnc1N1CCNCC1`: 145 to 147 °C; `Cc1sc2nc(CN3CCCCC3)nc(Cl)c2c1C`: 61 to 63 °C. In turn, `COC(=O)COc1ccc(O)cc1` came in with a melting point of 113 to 115 °C.

Compound `O=C(CO)Nc1ccc(C(F)(F)F)cc1` came in with a melting point of 104 to 106 °C. In the case of `O=S(=O)(Cl)C1=Cc2ccc(OC(F)F)cc2CC1`, the melting point lay within 72 to 74 °C. Turning to `CC(Cl)C(=O)NC(C)c1ccccc1` (stereo not drawn), the melting point fell in the range of 89 to 91 °C. Next, `Nc1ccc(C(=O)Nc2nccs2)cc1`: 256 to 258 °C. The same measure for `O=C(O)c1cc(N2CCNC2=O)c(F)cc1F`: 246 to 248 °C; for `O=C(O)c1ccc([N+](=O)[O-])cc1Br`: 164 to 166 °C; for `O=C(CCl)NC(C1CC1)C1CC1`: 114 to 116 °C. Next, `CS(=O)(=O)c1ccc(N)cn1`: 171 to 173 °C. As for `Clc1nc(CN2CCOCC2)nc2scc(-c3ccccc3)c12`, the melting point is 82 to 84 °C. The same measure for `O=C(O)Cc1ccc(S(=O)(=O)N2CCOCC2)s1`: 116 to 118 °C; for `Cc1ccc2cc(CCl)c(Cl)nc2c1C`: 109 to 111 °C.

For `Fc1ccc(NCc2ccccn2)cc1`, the melting point fell in the range of 71 to 73 °C. The same measure for `CC(=O)Oc1ccc(C(=O)O)cc1OC(C)=O`: 159 to 161 °C. The same measure for `CC(C)(C)OC(=O)Nc1ccccc1C(=O)O`: 154 to 156 °C; for `CC(NC(=O)c1ccc(Br)o1)C(=O)O` (stereo not drawn): 169 to 171 °C; for `NS(=O)(=O)c1ccc(CC(=O)O)cc1`: 169 to 171 °C. Next, `CC(C)N1C2CCC1CC(O)C2` (stereo not drawn): 90 to 92 °C; `O=C1Nc2cc(Cl)ccc2C1=O`: 264 to 266 °C. Regarding `CCOC(=O)c1nc2ccc(Br)cc2c(=O)[nH]1`, the melting point was in the range of 261 to 263 °C.

`Nc1ccccc1C(=O)N1CCOCC1`: the melting point was 74 to 76 °C. `O=C(O)CSCc1nc2sc3c(c2c(=O)[nH]1)CCC3`: the melting point lay within 198 to 200 °C. The same measure for `NS(=O)(=O)CCCN1C(=O)c2ccccc2C1=O`: 173 to 175 °C. `COc1ccc(S(=O)(=O)N2CCC(=O)CC2)cc1` came in with a melting point of 126 to 128 °C. With `O=C(CSc1nnc(NCc2ccccc2)s1)NCC1CCCCC1`, the melting point lay within 134 to 136 °C. Next, `CC(C)CNC(N)=S`: 99 to 101 °C; `O=C(O)c1oc2ccccc2c1COc1ccccc1`: 163 to 165 °C; `N#CCC(=O)c1cc2ccccc2o1`: 146 to 148 °C. The same measure for `CC(N)c1ccc(-c2cccnc2)cc1` (stereo not drawn): 47 to 49 °C; for `Cn1cc(C#N)cn1`: 59 to 61 °C; for `CC(Oc1ccccc1F)C(=O)NN` (stereo not drawn): 64 to 66 °C. The compound `Clc1cc2nc(-c3ccccc3)nn2cn1` yielded a melting point of 225 to 227 °C. The same measure for `O=c1[nH]cnc2cc(F)c(F)cc12`: 264 to 266 °C; for `O=C(O)C(NC1CC1)c1cc(Br)cs1` (stereo not drawn): 155 to 157 °C; for `O=S(=O)(Cl)c1cnc(Cl)nc1Cl`: 96 to 98 °C.

Take `CC(=O)CC(=O)Nc1ccc(C)cc1Cl`: the melting point fell in the range of 89 to 91 °C.

Compound `COc1ccc(S(=O)(=O)NCCC(=O)O)cc1` registered a melting point of 125 to 127 °C.

With `NC(=NO)C1CCCCCC1`, the melting point is 87 to 89 °C. As for `O=C(O)c1cc2c(cc1Cl)N1CCCCCC1=NS2(=O)=O`, the melting point was in the range of 251 to 253 °C. The same measure for `Cc1ccc(NC(=O)CCl)c(C)c1`: 153 to 155 °C; for `NCc1nncn1-c1ccccc1`: 59 to 61 °C. For `COc1ccc(C(=O)O)cc1S(=O)(=O)Cc1cc(C)no1`, the melting point lay within 217 to 219 °C. Compound `CCOC(=O)c1ncoc1-c1ccco1` registered a melting point of 93 to 95 °C.

Turning to `O=C(O)C1CC2(CCCC2)C1`, the melting point was in the range of 29 to 31 °C. Turning to `CC(=CC(=O)O)C(C)(C)C`, the melting point fell in the range of 83 to 85 °C. Next, `Nc1nnc(-c2ccc3ccccc3c2)o1`: 274 to 276 °C. Next, `CCOC=C(C#N)C(=O)O`: 63 to 65 °C; `O=Cc1cn2cccnc2n1`: 189 to 191 °C; `ClC(Cl)c1nnc(-c2ccccc2)o1`: 82 to 84 °C. Regarding `Cc1c[nH]c(=O)n1-c1ccc(F)c(F)c1`, the melting point is 250 to 252 °C.

With `O=C(O)CCN1C(=O)C2C3CCC(O3)C2C1=O` (stereo not drawn), the melting point is 185 to 187 °C. Next, `Nc1ccnn1-c1ccc([N+](=O)[O-])cc1`: 138 to 140 °C. In turn, `CC(C)NC(=O)CSc1ccccc1C(=O)O` gave a melting point of 181 to 185 °C. Next, `Cc1cccc(C(=O)O)c1NC(=O)c1ccncc1`: 249 to 251 °C; `CC(C(O)c1ccccc1)N(C)S(=O)(=O)c1ccc([N+](=O)[O-])cc1` (stereo not drawn): 132 to 134 °C; `Cc1cc(C)c(S(=O)(=O)N2CCCC2C(=O)O)c(C)c1` (stereo not drawn): 84 to 86 °C. As for `O=C(O)c1cn(CC(=O)N2CCCC2)nn1`, the melting point was 208 to 210 °C.

For `Cc1cc(S(N)(=O)=O)c(C)o1`, the melting point was in the range of 86 to 88 °C. The same measure for `CN(C)CCN=C=S`: 35 to 37 °C; for `Cc1ccc(C)c(-n2ccnc2SCC(=O)O)c1`: 128 to 130 °C; for `O=C(O)CC(Br)C(=O)c1ccc(Br)cc1` (stereo not drawn): 109 to 111 °C. Turning to `CC1(c2ccc(O)cc2)NC(=O)NC1=O` (stereo not drawn), the melting point lay within 240 to 242 °C. Next, `Cc1nn(C)c(C)c1CC(C)C(=O)O` (stereo not drawn): 125 to 127 °C; `CCc1nn(C)c(Cl)c1C=O`: 38 to 40 °C. The same measure for `O=S1(=O)CCC(CCBr)C1` (stereo not drawn): 56 to 58 °C; for `Cc1c[nH]nc1[N+](=O)[O-]`: 183 to 185 °C; for `COc1cc(-c2ccccc2)ccc1C=O`: 91 to 93 °C. The same measure for `C=CC(=O)Nc1cc(OC)c(Cl)cc1OC`: 124 to 126 °C.

Take `O=C1CC2(Cc3ccccc3C2)C(=O)O1`: the melting point was 164 to 166 °C.

Take `Nc1ncc(Cc2ccc(Cl)cc2Cl)s1`: the melting point fell in the range of 109 to 111 °C. The same measure for `CCc1nc2ccccc2n1CC(=O)O`: 232 to 234 °C; for `Cc1nc(-c2cccc([N+](=O)[O-])c2)no1`: 108 to 110 °C. In the case of `Cn1cc(C(=O)O)ccc1=O`, the melting point was in the range of 236 to 238 °C. The same measure for `O=C(O)C(OC1CCOCC1)c1ccccc1` (stereo not drawn): 87 to 89 °C. The same measure for `COc1cncc(CCC(=O)O)c1`: 102 to 104 °C; for `O=C(O)CSc1nnc(-c2cccs2)n1C1CC1`: 229 to 231 °C; for `O=Cc1ccc(-c2ccc(Br)cc2)s1`: 110 to 112 °C.

Regarding `CC1(C)CCc2[nH]c(=O)c(C(=O)O)cc2C1`, the melting point is 242 to 244 °C. The compound `CC(=O)c1cn(C)nc1C` had a melting point of 72 to 74 °C.

`CCCNC(=O)c1cccc(O)c1` gave a melting point of 68 to 70 °C.

The compound `COC(=O)c1cnc(N)nc1` had a melting point of 209 to 211 °C. In turn, `O=C(O)c1cc(F)cc(S(=O)(=O)Cl)c1` registered a melting point of 136 to 138 °C. Next, `O=S(=O)(CCO)c1ccc(Br)cc1`: 63 to 65 °C; `COc1cc(C#N)ccc1OCC(=O)O`: 154 to 156 °C; `CCCCn1c(=O)[nH]c(=O)c2cc(C(=O)O)cnc21`: 216 to 218 °C. `Cc1ccn(-c2ccc(C(=O)O)cc2)n1` came in with a melting point of 178 to 180 °C. The same measure for `Brc1cnc2nccnc2c1`: 158 to 160 °C; for `O=C(O)c1ccccc1SCc1nnnn1-c1ccccc1`: 170 to 174 °C; for `N#Cc1ccc2[nH]c(=O)[nH]c2c1`: 296 to 298 °C. The same measure for `CC(C)(C)OC(=O)N1CC[C@H](O)C1`: 60 to 62 °C; for `COC(=O)c1ccc(Cl)nc1Cl`: 56 to 58 °C. The compound `Cc1nn(-c2ccc(C(=O)O)cc2)c(C)c1Br` showed a melting point of 229 to 231 °C. Next, `COC(=O)c1cc(Cl)c2cc(Br)ccc2n1`: 163 to 165 °C.

In turn, `OCC1CN(Cc2ccccc2)CC1CO` (stereo not drawn) yielded a melting point of 94 to 96 °C. Next, `Cn1c(S)nnc1C1CCS(=O)(=O)C1` (stereo not drawn): 151 to 153 °C. Next, `O=C(O)c1cc2c(cc1[N+](=O)[O-])OCCO2`: 221 to 223 °C. On to `O=c1[nH]cc(S(=O)(=O)Cl)c(=O)[nH]1`, for which the melting point was 155 to 157 °C.

In the case of `FC(F)(F)c1ccc2c(c1)NCCO2`, the melting point lay within 94 to 96 °C.

Compound `COC(=O)c1nc(Cl)ccc1Cl` came in with a melting point of 53 to 55 °C. Next, `CC(C)COc1ncccc1C(=O)O`: 84 to 86 °C; `O=C(O)c1ccc(Sc2ccc(Cl)cc2)cc1`: 203 to 205 °C. Next, `O=C(CCl)NC1CCOCC1`: 82 to 84 °C.
